pIC50: −log10 of the molar value.
Key:
RS4-11 = assay: Antiproliferative activity against human RS4-11 cells assessed as inhibition of cell growth measured after 48 hrs by MTS assay; format: functional, cell-based; settings: RS4-11, 48 h
MOLT-4 = assay: Antiproliferative activity against human MOLT-4 cells assessed as inhibition of cell growth measured after 48 hrs by MTS assay; format: functional, cell-based; settings: MOLT-4, 48 h

pIC50 (RS4-11) | pIC50 (MOLT-4) | SMILES
> 7.70 | > 7.70 | Cc1ncsc1-c1ccc([C@H](C)NC(=O)[C@@H]2C[C@@H](O)CN2C(=O)[C@@H](NC(=O)CCCCC(=O)N2CCN(C3CCN(C[C@]4(C)CCC(c5ccc(Cl)cc5)=C(CN5CCN(c6ccc(C(=O)NS(=O)(=O)c7ccc(N[C@H](CCN8CCCOCC8)CSc8ccccc8)c(S(=O)(=O)C(F)(F)F)c7)cc6)CC5)C4)CC3)CC2)C(C)(C)C)cc1
> 7.70 | > 7.70 | Cc1ncsc1-c1ccc([C@H](C)NC(=O)[C@@H]2C[C@@H](O)CN2C(=O)[C@@H](NC(=O)CN(C)CC(=O)N2CCC(C3CCN(C[C@]4(C)CCC(c5ccc(Cl)cc5)=C(CN5CCN(c6ccc(C(=O)NS(=O)(=O)c7ccc(N[C@H](CCN8CCCOCC8)CSc8ccccc8)c(S(=O)(=O)C(F)(F)F)c7)cc6)CC5)C4)CC3)CC2)C(C)(C)C)cc1
> 7.70 | > 7.70 | Cc1ncsc1-c1ccc([C@H](C)NC(=O)[C@@H]2C[C@@H](O)CN2C(=O)[C@@H](NC(=O)CN(C)CCC(=O)N2CCC(C3CCN(C[C@]4(C)CCC(c5ccc(Cl)cc5)=C(CN5CCN(c6ccc(C(=O)NS(=O)(=O)c7ccc(N[C@H](CCN8CCCOCC8)CSc8ccccc8)c(S(=O)(=O)C(F)(F)F)c7)cc6)CC5)C4)CC3)CC2)C(C)(C)C)cc1
